The values that follow are results of earlier work, collected in the CATMoS acute toxicity set (Mansouri et al. 2021).

Usually LD50 stands for the dose at which mortality reaches 50%.

The structures appear in SMILES notation. Several values for one entry are separate records, joined by “and”; a condition that tells them apart may be missing. Identical values can stand only once.

A short description of the data set: rat acute oral toxicity. As to conditions: in vivo. The source says:
[…]The data set underlying the modeling effort for this project was initially compiled by NICEATM and U.S. EPA’s CCTE. Briefly, LD50 data were collected from rat acute oral systemic toxicity tests, including limit tests, ranges/confidence intervals, and discrete LD50 values. The full data set included 21,200 LD50 entries for 15,688 substances. […] Data were reviewed to ensure that LD50 values with obvious errors in the extracted data such as unit conversion errors (e.g., comma and decimal separator misplacements) were either fixed or removed. After this review, 16,209 LD50 values remained. Many of the chemicals represented had multiple LD50 entries, requiring that a single representative value per Chemical Abstracts Service Registry Number (CASRN) identifier be defined to facilitate modeling efforts. Based on ATWG feedback and to define the representative LD50 as a protective value while accounting for the distribution across multiple LD50s, the median of the lowest quartile was computed using only discrete LD50 values (omitting limit test data and range and confidence interval data). A detailed summary of the data compilation is available online on the NICEATM webpage dedicated to the collaborative modeling project (NTP 2020).
[…][…] For categorical designations, limit test and range/confidence interval LD50 data were integrated wherever possible. As such, the number of chemicals with end point values/calls varies across the modeling end points (Table 3) based on whether chemicals had representative LD50 values and/or other data. If a chemical had both, the representative value was used to determine categorical calls rather than limit test data. Some data were useable only for certain end points and categories depending on the thresholds. For example, ranges that spanned multiple hazard categories were considered only for the binary (very toxic/nontoxic) end points and omitted from rendering a determination for hazard category assignment.
[…]The final data set comprising 11,992 chemicals was split into training and evaluation sets […], respectively. This process was performed semirandomly by ordering chemicals based on the five end points (categorical and continuous LD50 values) and partitioning every fourth record into the evaluation set accordingly. This approach was taken to ensure an equivalent distribution of the LD50 values and the different hazard categories between the training and the evaluation sets without supervised sampling of the chemicals based on structures (Figure 1A). The sources of the chemical structures were also kept equivalent between the two sets, with chemical structures obtained from DSSTox, being the highest quality, representing over 75% of each set (Figure 1B).
On to `O=C1c2ccc3c4c(ccc(c24)C(=O)C1(Cl)Cl)CC3`, for which the LD50 is 10600 mg/kg.

In the case of `O=P(OC=C(Cl)Cl)(OCCCl)OCCCl`, the LD50 was 25 mg/kg. Regarding `N#CC(Cl)CS(=O)(=O)c1ccccc1` (centres undefined), the LD50 is 540 mg/kg.

For the molecule `CN(C)C(=O)Oc1cccc([N+](C)(C)C)c1`, the LD50 is 51 mg/kg. As for `Oc1cc(Cl)c(Br)cc1Cl`, the LD50 is 1350 mg/kg.

As for `O=[N+]([O-])c1cc(Cl)cc2[nH]c(C(F)(F)F)nc12`, the LD50 was 2.78 mg/kg. `CCCCNC(=O)NS(=O)(=O)c1ccc(N)cc1`: the LD50 was 4400 mg/kg. For the molecule `CC(C)COC(=O)COc1ccc(Cl)cc1Cl`, the LD50 was 300 mg/kg. In the case of `O=C1CCOc2ccccc21`, the LD50 is 2650 mg/kg. Regarding `CN(C)S(=O)(=O)CCCCCNC(=O)N(CCCl)N=O`, the LD50 was 250 mg/kg. As for `COc1ccc(Cl)cc1N/C(=N/C1CCCCC1)c1ccccc1`, the LD50 was 625 mg/kg. As for `CN(CCCO)CCC(c1ccccc1)c1ccccc1`, the LD50 is 1400 mg/kg. As to `N#CSCSC#N`, the LD50 is 55 mg/kg. For the molecule `C=CCSSCC=C`, the LD50 was 260 mg/kg. As to `CCCCCCCCCCCCCCCCCC(=O)NCCC[N+](C)(C)CCO`, the LD50 was 8100 mg/kg. As for `CCOc1ccc(-c2ccccc2)cc1CN1CCCC1`, the LD50 was 30 mg/kg. Regarding `Cc1cc(O)ccc1[N+](=O)[O-]`, the LD50 is 1200 mg/kg. With `Cc1ccc2c(c1)c1c3n2CCNC3CCC1` (centres undefined), the LD50 was 2060 mg/kg.

`CN(SSN(C)C(=O)ON=C1CSCCS1)C(=O)ON=C1CSCCS1`: the LD50 is 160 mg/kg. As to `Clc1ccc(CSC(Cn2ccnc2)c2ccc(Cl)cc2Cl)cc1` (centres undefined), the LD50 is 1740 mg/kg. Regarding `O=C(O)c1ccc(Cl)c([N+](=O)[O-])c1`, the LD50 was 3150 mg/kg. Regarding `CCC(C)c1cc(OC(=O)NC)ccc1C` (centres undefined), the LD50 is 35 mg/kg. In the case of `COc1cc(C[C@H]2c3cc(OC)c(OC)cc3CCN2C)c(Oc2cc3c(cc2OC)-c2c(OC)c(OC)cc4c2[C@H](C3)N(C)CC4)cc1OC`, the LD50 is 1500 mg/kg. In the case of `Cc1ccn(CO)n1`, the LD50 is 1650 mg/kg.

In the case of `O=c1c(Cl)c(Cl)cnn1-c1ccccc1`, the LD50 was 2520 mg/kg. On to `OC(CCN1CCCCC1)(c1ccccc1)C1CCCCC1` (centres undefined), for which the LD50 is 1630 mg/kg. On to `Cc1nn(C)c2c1NCc1ccccc1O2`, for which the LD50 is 1360 mg/kg. With `CCC(C)c1ccc(O)cc1` (centres undefined), the LD50 was 2450 mg/kg. For the molecule `O=C(O)CCCCCCCCC(=O)O`, the LD50 was 14400 mg/kg. `CCN(CC)c1ccc(N)cc1`: the LD50 was 200 mg/kg. `COc1ccc2ccc(=O)oc2c1CC=C(C)C`: the LD50 was 2900 mg/kg. For the molecule `CCCOC(=O)c1ccc(C(=O)OCCC)nc1`, the LD50 was 5230 mg/kg.

In the case of `CC(CN1CCN(CCOCCO)CC1)CN1c2ccccc2Sc2ccccc21` (centres undefined), the LD50 was 400 mg/kg. As for `Cc1cccc2sc3nncn3c12`, the LD50 was 250 mg/kg. For `Cc1ccc(C)c(CCNC(N)=O)c1`, the LD50 is 2300 mg/kg.

In the case of `CCOS(=O)(=O)OCC`, the LD50 is 880 mg/kg. For the molecule `Cc1ccc(NN)cc1`, the LD50 was 262 mg/kg.

On to `Clc1ccc(S/N=N/c2cc(Cl)c(Cl)cc2Cl)cc1`, for which the LD50 was 4000 mg/kg. For `N=C(N)Nc1ccc(C(=O)Oc2ccc3cc(C(=N)N)ccc3c2)cc1`, the LD50 was 3050 mg/kg. On to `Nc1ccc(F)cc1`, for which the LD50 is 417 mg/kg. With `CCOc1ccc([N+](=O)[O-])cc1CNCCBr`, the LD50 was 25 mg/kg. As to `CN(C)CCC=C1c2ccccc2CS(=O)c2sccc21` (centres undefined), the LD50 was 319 mg/kg. In the case of `CCCC[N+]1(C)[C@@H]2C[C@@H](OC(=O)[C@H](CO)c3ccccc3)C[C@H]1[C@@H]1O[C@@H]12` (some centres undefined), the LD50 is 1040 mg/kg. `CNC(=O)Oc1ccc(N=CN(C)C)c(C)c1`: the LD50 was 7.2 mg/kg. Regarding `O=c1[nH]c2cc(Cl)c(Cl)cc2o1`, the LD50 is 700 mg/kg. For the molecule `CCN(Cc1ccc(Cl)nc1)/C(=C/[N+](=O)[O-])NC`, the LD50 is 1580 mg/kg. For `Cc1nc2n(c(=O)c1CCN1CCC(c3noc4cc(F)ccc34)CC1)CCC[C@H]2O`, the LD50 is 65 mg/kg. In the case of `CCNc1nc(NCC)nc(OC)n1`, the LD50 was 535 mg/kg. As to `CN(C)[C@@H]1C(O)=C(C(N)=O)C(=O)[C@@]2(O)C(O)=C3C(=O)c4c(O)ccc(Cl)c4[C@@H](O)[C@H]3C[C@@H]12`, the LD50 was 2370 mg/kg.

With `C=COP(=O)(OCC)OC(CCl)c1cc(Cl)c(Cl)cc1Cl` (centres undefined), the LD50 was 1100 mg/kg. Turning to `CCCC(=O)c1ccc(N)cc1`, the LD50 was 84 mg/kg. Turning to `CC(C)(O)C(C)(O)c1ccc(Cl)cc1` (centres undefined), the LD50 is 832 mg/kg. On to `CC1Cc2cc(C(=O)CCc3ccccc3)ccc2O1` (centres undefined), for which the LD50 was 2150 mg/kg. Consider `COP(=O)(OC)OC1=C(Cl)C2C=CCC12` (centres undefined), for which the LD50 was 96 mg/kg. Consider `NC(=O)c1ccc([N+](=O)[O-])cc1`, for which the LD50 was 476 mg/kg. `O=C(O)CCCOc1ccc(Cl)cc1Cl`: the LD50 was 700 mg/kg.

`CS/C(C)=N/OC(=O)N(C)SN(C)C(=O)O/N=C(\C)SC`: the LD50 was 66 mg/kg. Regarding `FC(F)(F)c1nc2c(Br)c(Br)c(Br)c(Br)c2[nH]1`, the median lethal dose (LD50) is 5.02 mg/kg. Take `CCCCCCCCCCCCCCCCCCCCCCO`: the LD50 was 10000 mg/kg. Regarding `C=CCn1c(C)c(N(C)C)c(=O)n(-c2ccccc2)c1=O`, the 50% lethal dose (LD50) is 2400 mg/kg. As for `O=C(O)CCC(=O)c1ccc(C2CCCCC2)c(Cl)c1`, the LD50 is 120 mg/kg and 300 mg/kg. On to `C=CCOC(=O)c1ccc(C(=O)OCC=C)c(C(=O)OCC=C)c1`, for which the LD50 is 2400 mg/kg. As to `CCOc1ccc([N+](=O)[O-])cc1CNCCCl`, the LD50 was 25 mg/kg.

For `CCN(CC)C(C)CN1c2ccccc2Sc2ccccc21` (centres undefined), the LD50 was 1700 mg/kg.

For `COC(=O)C(C)N(C(=O)c1ccco1)c1c(C)cccc1C` (centres undefined), the LD50 is 940 mg/kg.

In the case of `CC1=CCC2CC1(S)C2(C)C` (centres undefined), the LD50 was 3000 mg/kg. On to `Cc1cccc(C)c1N(CCCC(=O)O)C(=O)c1ccc(Cl)cc1`, for which the LD50 was 1900 mg/kg. For `O=C1c2ccccc2C(=O)c2c(Nc3ccc(Oc4ccc(S(=O)(=O)O)cc4)cc3)ccc(Nc3ccc(Oc4ccc(S(=O)(=O)O)cc4)cc3)c21`, the LD50 was 8550 mg/kg. For `Cc1cc(CCN2CCN(c3cccc(Cl)c3)CC2)n[nH]1`, the LD50 was 570 mg/kg. On to `Cc1ccc(/N=N/c2c(O)c(S(=O)(=O)O)cc3ccc(S(=O)(=O)O)cc23)c(C)c1`, for which the LD50 was 23200 mg/kg.

With `C#CCOc1cccc(OC(=O)NC)c1`, the LD50 is 150 mg/kg. For the molecule `CC=CC(=O)N(CC)c1ccccc1C`, the LD50 is 1500 mg/kg.

On to `NC1CCN(c2cccc(Cl)n2)CC1`, for which the LD50 was 190 mg/kg. Take `O=C(Nc1ccc(Br)cc1)c1cc(Br)ccc1O`: the LD50 was 410 mg/kg. `OCCOCCN(CCOCCO)CCN(CCOCCO)CCOCCO`: the median lethal dose (LD50) was 9900 mg/kg. Regarding `CC(C)OCC1CO1` (centres undefined), the LD50 is 4200 mg/kg. Consider `CC1Cc2cc3c(cc2C(c2ccc(N)cc2)=NN1)OCO3` (centres undefined), for which the LD50 was 350 mg/kg. As for `CCC(CC)COCCOC(=O)CCCCC(=O)OCCOCC(CC)CC`, the LD50 was 3250 mg/kg. Consider `CC(C(=O)O)c1ccc(C(=O)c2ccccc2)s1` (centres undefined), for which the LD50 was 181 mg/kg.

For the molecule `CC1OCCO1`, the LD50 is 2900 mg/kg. `CC(CN(C)C)CN1c2ccccc2OCOc2ccc(Cl)cc21` (centres undefined): the LD50 is 600 mg/kg. With `Nc1cccc2c(Cl)ccc(Cl)c12`, the LD50 was 3490 mg/kg. As for `CCSc1nc(=O)n(CC(C)(C)C)c(=O)n1N`, the LD50 was 3500 mg/kg. `CC(CC(=O)c1ccc(-c2ccc(F)cc2F)cc1)C(=O)O` (centres undefined): the LD50 is 134 mg/kg. Turning to `CC(C)CC(C)OC(=O)CC(C(=O)OC(C)CC(C)C)S(=O)(=O)O` (centres undefined), the LD50 is 1750 mg/kg. As to `CCCCOC(=O)COc1cc(Cl)c(Cl)cc1Cl`, the LD50 was 481 mg/kg. Regarding `CCSC(C)C1(CC)C(=O)NC(=S)NC1=O` (centres undefined), the LD50 is 772 mg/kg. As to `CC1(C)[C@@H]2CC[C@@]1(C)[C@H](OC(=O)CSC#N)C2`, the LD50 is 1000 mg/kg. On to `CCN(CCCCOC(=O)c1ccc(OC)c(OC)c1)C1CCc2cc(OC)c(OC)cc2C1` (centres undefined), for which the LD50 was 1540 mg/kg. Consider `CCNc1nc(Cl)nc(NCC)n1`, for which the LD50 is 971 mg/kg. In the case of `CC(O)CNC(C)(C)Cc1ccc(Cl)cc1` (centres undefined), the LD50 is 150 mg/kg. For `CN(C)C(=S)c1ccc2c(c1)OCO2`, the LD50 was 79 mg/kg. Regarding `CC(C)(C)NCCCCN`, the LD50 is 810 mg/kg. With `CCN(CC)CCOCc1cc(Br)ccc1OC`, the LD50 is 220 mg/kg. Turning to `O=C=Nc1ccc(Cl)c(C(F)(F)F)c1`, the LD50 is 500 mg/kg. `C1CCCNCC1`: the LD50 is 20.7 mg/kg. Turning to `Nc1cc2c(cc1C1CCCCC1)CCC2C(=O)O` (centres undefined), the LD50 is 54 mg/kg. As for `FC(F)(F)c1ccc(Cl)cc1`, the LD50 was 13000 mg/kg. For `O=C(O)CSc1nc(-c2ccccc2)ns1`, the LD50 was 500 mg/kg.

On to `CC(C)(C)NC[C@H](O)COc1nsnc1N1CCOCC1`, for which the LD50 is 1030 mg/kg. Regarding `Nc1c2c(nc3ccccc13)CCCC2`, the LD50 was 70 mg/kg. `CC(OC(C)c1ccccc1)c1ccccc1` (centres undefined): the LD50 was 9800 mg/kg. As for `COCCOCCOCCOC(C)=O`, the LD50 was 11000 mg/kg. As to `CCCCc1ccc(O)c(C(=O)Nc2cccc(C(F)(F)F)c2)c1`, the LD50 is 2500 mg/kg.
